# Measurements from US20220281848A1, “PYRAZOLE-SUBSTITUTED PYRROLIDINONES AS HERBICIDES” (FMC Corporation, priority 2019, published 2022).
# How the values were obtained:
# wheat = assay: Test D post-emergence, wheat seed treated with a herbicide safener; type: in vivo; settings: "Cereals" Postemergent
# In short: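 Herbicidal injury on safener-protected cereals: application timings were one day after sowing for pre-emergence and about 12 days of cultivation for post-emergence. Assessment came 20 DAA or 15 d later respectively, on a scale where 100 meant total damage.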
# plants = assay: Test D post-emergence, other plants of Tables D2 and D4; type: in vivo; settings: for ALOMY damage rating (100=total damage to plant; 0=no damage to plant) / AVEFA damage rating (100=total damage to plant; 0=no damage to plant) / BEAVA damage rating (100=total damage to plant; 0=no damage to plant) / BROTE damage rating (100=total damage to plant; 0=no damage to plant) / BRSNN damage rating (100=total damage to plant; 0=no damage to plant) / CHEAL damage rating (100=total damage to plant; 0=no damage to plant) / GALAP damage rating (100=total damage to plant; 0=no damage to plant) / HORVW damage rating (100=total damage to plant; 0=no damage to plant) / KCHSC damage rating (100=total damage to plant; 0=no damage to plant) / LOLPE damage rating (100=total damage to plant; 0=no damage to plant) / POAAN damage rating (100=total damage to plant; 0=no damage to plant) / POLCO damage rating (100=total damage to plant; 0=no damage to plant) / STEME damage rating (100=total damage to plant; 0=no damage to plant) / VERPE damage rating (100=total damage to plant; 0=no damage to plant): "Cereals" Postemergent, evaluated after 15 d; for damage to plant (100=total damage to plant; 0=no damage to plant), ABUTH / damage to plant (100=total damage to plant; 0=no damage to plant), AMARE / damage to plant (100=total damage to plant; 0=no damage to plant), BIDPI / damage to plant (100=total damage to plant; 0=no damage to plant), BRAPL / damage to plant (100=total damage to plant; 0=no damage to plant), CYPES / damage to plant (100=total damage to plant; 0=no damage to plant), DIGSA / damage to plant (100=total damage to plant; 0=no damage to plant), ECHCG / damage to plant (100=total damage to plant; 0=no damage to plant), ELEIN / damage to plant (100=total damage to plant; 0=no damage to plant), EPHHL / damage to plant (100=total damage to plant; 0=no damage to plant), GLXMA / damage to plant (100=total damage to plant; 0=no damage to plant), IPOHE / damage to plant (100=total damage to plant; 0=no damage to plant), ORYSA / damage to plant (100=total damage to plant; 0=no damage to plant), PANMI / damage to plant (100=total damage to plant; 0=no damage to plant), SETFA / damage to plant (100=total damage to plant; 0=no damage to plant), SIDSP / damage to plant (100=total damage to plant; 0=no damage to plant), SORVU: post-emergence
# In short: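 Damage was rated visually from 0 (none) to 100 (total), at 20 DAA for pre-emergence and 15 d for post-emergence. Plants grew from safener-treated seed in a glasshouse at 24/18° C. or 20/16° C. day/night, 65% humidity, watered twice daily.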
smiles,measurement,setting,value
CCn1nc([C@@H]2CN(C)C(=O)[C@H]2C(=O)Nc2cccc(F)c2F)c2cccc(F)c21 [Compound 14],TRZAW damage rating (100=total damage to plant; 0=no damage to plant),"wheat; Rates 130, evaluated after 15 d",10
same,TRZAW damage rating (100=total damage to plant; 0=no damage to plant),"wheat; Rates 250, evaluated after 15 d",70
same,TRZAW damage rating (100=total damage to plant; 0=no damage to plant),"wheat; Rates 500, evaluated after 15 d",80
same,ALOMY damage rating (100=total damage to plant; 0=no damage to plant),plants; Rates 130,40
same,ALOMY damage rating (100=total damage to plant; 0=no damage to plant),plants; Rates 250,60
same,ALOMY damage rating (100=total damage to plant; 0=no damage to plant),plants; Rates 500,70
same,AVEFA damage rating (100=total damage to plant; 0=no damage to plant),plants; Rates 130,30
same,AVEFA damage rating (100=total damage to plant; 0=no damage to plant),plants; Rates 250,70
same,AVEFA damage rating (100=total damage to plant; 0=no damage to plant),plants; Rates 500,80
same,BEAVA damage rating (100=total damage to plant; 0=no damage to plant),plants; Rates 130,30
same,BEAVA damage rating (100=total damage to plant; 0=no damage to plant),plants; Rates 250,30
same,BEAVA damage rating (100=total damage to plant; 0=no damage to plant),plants; Rates 500,20
same,BROTE damage rating (100=total damage to plant; 0=no damage to plant),plants; Rates 130,0
same,BROTE damage rating (100=total damage to plant; 0=no damage to plant),plants; Rates 250,10
same,BROTE damage rating (100=total damage to plant; 0=no damage to plant),plants; Rates 500,30
same,BRSNN damage rating (100=total damage to plant; 0=no damage to plant),plants; Rates 130,40
same,BRSNN damage rating (100=total damage to plant; 0=no damage to plant),plants; Rates 250,50
same,BRSNN damage rating (100=total damage to plant; 0=no damage to plant),plants; Rates 500,40
same,CHEAL damage rating (100=total damage to plant; 0=no damage to plant),plants; Rates 130,50
same,CHEAL damage rating (100=total damage to plant; 0=no damage to plant),plants; Rates 500,40
same,GALAP damage rating (100=total damage to plant; 0=no damage to plant),plants; Rates 130,0
same,GALAP damage rating (100=total damage to plant; 0=no damage to plant),plants; Rates 250,10
same,GALAP damage rating (100=total damage to plant; 0=no damage to plant),plants; Rates 500,20
same,HORVW damage rating (100=total damage to plant; 0=no damage to plant),plants; Rates 130,20
same,HORVW damage rating (100=total damage to plant; 0=no damage to plant),plants; Rates 250,70
same,HORVW damage rating (100=total damage to plant; 0=no damage to plant),plants; Rates 500,70
same,KCHSC damage rating (100=total damage to plant; 0=no damage to plant),plants; Rates 130,10
same,KCHSC damage rating (100=total damage to plant; 0=no damage to plant),plants; Rates 250,20
same,KCHSC damage rating (100=total damage to plant; 0=no damage to plant),plants; Rates 500,20
same,LOLPE damage rating (100=total damage to plant; 0=no damage to plant),plants; Rates 130,0
same,LOLPE damage rating (100=total damage to plant; 0=no damage to plant),plants; Rates 250,20
same,LOLPE damage rating (100=total damage to plant; 0=no damage to plant),plants; Rates 500,50
same,POAAN damage rating (100=total damage to plant; 0=no damage to plant),plants; Rates 130,80
same,POAAN damage rating (100=total damage to plant; 0=no damage to plant),plants; Rates 250,90
same,POAAN damage rating (100=total damage to plant; 0=no damage to plant),plants; Rates 500,90
same,POLCO damage rating (100=total damage to plant; 0=no damage to plant),plants; Rates 130,20
same,POLCO damage rating (100=total damage to plant; 0=no damage to plant),plants; Rates 250,30
same,POLCO damage rating (100=total damage to plant; 0=no damage to plant),plants; Rates 500,40
same,STEME damage rating (100=total damage to plant; 0=no damage to plant),plants; Rates 250,50
same,STEME damage rating (100=total damage to plant; 0=no damage to plant),plants; Rates 500,70
same,VERPE damage rating (100=total damage to plant; 0=no damage to plant),plants; Rates 130,50
same,VERPE damage rating (100=total damage to plant; 0=no damage to plant),plants; Rates 250,50
same,VERPE damage rating (100=total damage to plant; 0=no damage to plant),plants; Rates 500,60
same,"damage to plant (100=total damage to plant; 0=no damage to plant), ABUTH","plants; rate 130, evaluated after 15 d",0
same,"damage to plant (100=total damage to plant; 0=no damage to plant), ABUTH","plants; rate 250, evaluated after 15 d",0
same,"damage to plant (100=total damage to plant; 0=no damage to plant), ABUTH","plants; rate 500, evaluated after 15 d",10
same,"damage to plant (100=total damage to plant; 0=no damage to plant), AMARE","plants; rate 130, evaluated after 15 d",0
same,"damage to plant (100=total damage to plant; 0=no damage to plant), AMARE","plants; rate 250, evaluated after 15 d",0
same,"damage to plant (100=total damage to plant; 0=no damage to plant), AMARE","plants; rate 500, evaluated after 15 d",30
same,"damage to plant (100=total damage to plant; 0=no damage to plant), BIDPI","plants; rate 130, evaluated after 15 d",10
same,"damage to plant (100=total damage to plant; 0=no damage to plant), BIDPI","plants; rate 250, evaluated after 15 d",20
same,"damage to plant (100=total damage to plant; 0=no damage to plant), BIDPI","plants; rate 500, evaluated after 15 d",30
same,"damage to plant (100=total damage to plant; 0=no damage to plant), BRAPL","plants; rate 130, evaluated after 15 d",80
same,"damage to plant (100=total damage to plant; 0=no damage to plant), BRAPL","plants; rate 250, evaluated after 15 d",70
same,"damage to plant (100=total damage to plant; 0=no damage to plant), BRAPL","plants; rate 500, evaluated after 15 d",80
same,"damage to plant (100=total damage to plant; 0=no damage to plant), CYPES","plants; rate 130, evaluated after 15 d",0
same,"damage to plant (100=total damage to plant; 0=no damage to plant), CYPES","plants; rate 250, evaluated after 15 d",0
same,"damage to plant (100=total damage to plant; 0=no damage to plant), CYPES","plants; rate 500, evaluated after 15 d",0
same,"damage to plant (100=total damage to plant; 0=no damage to plant), DIGSA","plants; rate 130, evaluated after 15 d",60
same,"damage to plant (100=total damage to plant; 0=no damage to plant), DIGSA","plants; rate 250, evaluated after 15 d",70
same,"damage to plant (100=total damage to plant; 0=no damage to plant), DIGSA","plants; rate 500, evaluated after 15 d",70
same,"damage to plant (100=total damage to plant; 0=no damage to plant), ECHCG","plants; rate 250, evaluated after 15 d",80
same,"damage to plant (100=total damage to plant; 0=no damage to plant), ECHCG","plants; rate 500, evaluated after 15 d",80
same,"damage to plant (100=total damage to plant; 0=no damage to plant), ELEIN","plants; rate 130, evaluated after 15 d",0
same,"damage to plant (100=total damage to plant; 0=no damage to plant), ELEIN","plants; rate 250, evaluated after 15 d",0
same,"damage to plant (100=total damage to plant; 0=no damage to plant), ELEIN","plants; rate 500, evaluated after 15 d",0
same,"damage to plant (100=total damage to plant; 0=no damage to plant), EPHHL","plants; rate 130, evaluated after 15 d",20
same,"damage to plant (100=total damage to plant; 0=no damage to plant), EPHHL","plants; rate 250, evaluated after 15 d",30
same,"damage to plant (100=total damage to plant; 0=no damage to plant), EPHHL","plants; rate 500, evaluated after 15 d",50
same,"damage to plant (100=total damage to plant; 0=no damage to plant), GLXMA","plants; rate 130, evaluated after 15 d",0
same,"damage to plant (100=total damage to plant; 0=no damage to plant), GLXMA","plants; rate 250, evaluated after 15 d",0
same,"damage to plant (100=total damage to plant; 0=no damage to plant), GLXMA","plants; rate 500, evaluated after 15 d",0
same,"damage to plant (100=total damage to plant; 0=no damage to plant), IPOHE","plants; rate 130, evaluated after 15 d",0
same,"damage to plant (100=total damage to plant; 0=no damage to plant), IPOHE","plants; rate 250, evaluated after 15 d",10
same,"damage to plant (100=total damage to plant; 0=no damage to plant), IPOHE","plants; rate 500, evaluated after 15 d",20
same,"damage to plant (100=total damage to plant; 0=no damage to plant), ORYSA","plants; rate 130, evaluated after 15 d",0
same,"damage to plant (100=total damage to plant; 0=no damage to plant), ORYSA","plants; rate 250, evaluated after 15 d",0
same,"damage to plant (100=total damage to plant; 0=no damage to plant), ORYSA","plants; rate 500, evaluated after 15 d",0
same,"damage to plant (100=total damage to plant; 0=no damage to plant), PANMI","plants; rate 130, evaluated after 15 d",0
same,"damage to plant (100=total damage to plant; 0=no damage to plant), PANMI","plants; rate 250, evaluated after 15 d",0
same,"damage to plant (100=total damage to plant; 0=no damage to plant), PANMI","plants; rate 500, evaluated after 15 d",0
same,"damage to plant (100=total damage to plant; 0=no damage to plant), SETFA","plants; rate 130, evaluated after 15 d",70
same,"damage to plant (100=total damage to plant; 0=no damage to plant), SETFA","plants; rate 250, evaluated after 15 d",70
same,"damage to plant (100=total damage to plant; 0=no damage to plant), SETFA","plants; rate 500, evaluated after 15 d",70
same,"damage to plant (100=total damage to plant; 0=no damage to plant), SIDSP","plants; rate 130, evaluated after 15 d",0
same,"damage to plant (100=total damage to plant; 0=no damage to plant), SIDSP","plants; rate 250, evaluated after 15 d",0
same,"damage to plant (100=total damage to plant; 0=no damage to plant), SIDSP","plants; rate 500, evaluated after 15 d",30
same,"damage to plant (100=total damage to plant; 0=no damage to plant), SORVU","plants; rate 130, evaluated after 15 d",0
same,"damage to plant (100=total damage to plant; 0=no damage to plant), SORVU","plants; rate 250, evaluated after 15 d",0
same,"damage to plant (100=total damage to plant; 0=no damage to plant), SORVU","plants; rate 500, evaluated after 15 d",20
